Experimental data from US8124641B2, “Aminotetrahydroindazoloacetic acids” (Hoffmann-La Roche Inc., priority 2008, dated 2012).

Molecular target: T1, human CRTH2 (Homo sapiens, UniProt Q9Y5Y4)
T1 construct: expressed in transfected cells
T1 sequence (Q9Y5Y4 1-395): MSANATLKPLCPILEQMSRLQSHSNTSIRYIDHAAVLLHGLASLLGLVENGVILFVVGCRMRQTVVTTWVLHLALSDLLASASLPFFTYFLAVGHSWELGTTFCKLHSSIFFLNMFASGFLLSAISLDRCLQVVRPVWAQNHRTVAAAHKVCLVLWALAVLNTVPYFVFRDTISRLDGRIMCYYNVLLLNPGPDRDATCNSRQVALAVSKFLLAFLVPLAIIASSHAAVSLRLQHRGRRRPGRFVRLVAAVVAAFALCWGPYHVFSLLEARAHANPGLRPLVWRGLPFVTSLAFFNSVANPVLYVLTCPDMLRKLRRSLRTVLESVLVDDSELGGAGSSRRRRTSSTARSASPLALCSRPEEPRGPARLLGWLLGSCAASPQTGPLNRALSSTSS
Experiment: Human CRTH2 Receptor Binding Assay (whole cell, [3H]ramatroban competition)
Conditions: CHO-K1 cells stably expressing human CRTH2 and G-alpha16; 20 nM [3H]ramatroban; 1 hour, room temperature
Text: A whole cell receptor binding assay using [^3H]ramatroban as the competing radioactive ligand was employed to evaluate the compound binding activity to human CRTH2. The radioactive ligand [^3H]ramatroban was synthesized according to Sugimoto et. al. (Eur. J. Pharmacol. 524, 30-37, 2005) to a specific activity of 42 Ci/mmol.
A cell line stably expressing human CRTH2 was established by transfecting CHO-K1 cells with two mammalian expression vectors that harbored human CRTH2 and G-alpha16 cDNAs, respectively, using FuGene® 6 transfection reagent (from Roche). Stable clones expressing CRTH2 were selected by staining each clone with BM16 (BD Pharmingen™ from BD Biosciences, a division of Becton, Dickinson and Company), which is a rat monoclonal antibody to human CRTH2. The cells were maintained as monolayer cultures in Ham's F-12 medium containing 10% fetal bovine serum, 100 units/mL penicillin, 100 μg/mL streptomycin, 2 mM glutamine, 0.5 mg/mL G418 (geneticin) for CRTH2, and 0.2 mg/mL hygromycin-B (for G-alpha 16). For whole cell receptor binding assay, the monolayer cells were rinsed once with PBS (phosphate buffered saline), dissociated using ethylenediaminetetraacetate (Versene™ EDTA from Lonza Inc.), and suspended in PBS containing 10 mM MgCl2 and 0.06% BSA (bovine serum albumin) at 1.5×10^6 cells/mL.
The binding reactions (0.2 mL) were performed in 96-well plates at room temperature in PBS containing 1.5×10^5 cells, 10 mM MgCl2, 0.06% BSA, 20 nM [^3H]ramatroban, and test compound at various concentrations. After 1 hour of binding reactions, the cells were harvested on GF™/B filter microplates (microtiter plates with embedded glass fiber from PerkinElmer, Inc.) and washed 5 times with PBS using a Filtermate™ Harvester (a cell harvester that harvests and washes cells from microplates from PerkinElmer, Inc.). The radioactivities bound to the cells were determined using a microplate scintillation counter (TopCount® NXT, from PerkinElmer, Inc.) after adding 50 μL of Microscint™ 20 scintillation fluid (from PerkinElmer, Inc.) to each well of the filter plates. The radioactivity from non-specific binding was determined by replacing compound with 10 μM of 15(R)-15-methyl PGD2 (from Cayman Chemical Company) in the reaction mixtures. The radioactivity bound to the cells in the absence of compound (total binding) was determined by replacing compound with 0.25% of DMSO (dimethyl sulfoxide) in the reaction mixture. Specific binding data were obtained by subtracting the radioactivity of non-specific binding from each binding data.
The IC50 value is defined as the concentration of the tested compound that is required for 50% inhibition of total specific binding. In order to calculate the IC50 value, the percent inhibition data were determined for 7 concentrations for each compound. The percent inhibition for a compound at each concentration was calculated according to the following formula, [1−(specific binding in the presence of compound)/(total specific binding)]×100. The IC50 value was then obtained by fitting the percent inhibition data to a sigmoidal dose-response (4 parameter logistic) model in the XLfit® software Excel add-in program [from ID Business Solutions Ltd., model 205, where F(x)=(A+(B−A)/(1+((C/x)^D)))].

SMILES | IC50 [nM]
Cc1cc(C)cc(S(=O)(=O)NC2CCCc3c2cnn3CC(=O)O)c1 (stereo not drawn) [Example 1-6a, [4-(3,5-Dimethyl-benzenesulfonylamino)-4,5,6,7-tetrahydro-indazol-1-yl]-acetic acid] | 397
CC(C)S(=O)(=O)c1cc(C(F)(F)F)cc(S(=O)(=O)N(C)[C@@H]2CCCc3c2cnn3CC(=O)O)c1 [Example 10-3a, ((R)-4-{Methyl-[3-(propane-2-sulfonyl)-5-trifluoromethyl-benzenesulfonyl]-amino}-4,5,6,7-tetrahydro-indazol-1-yl)-acetic acid] | 2.1
CN([C@@H]1CCCc2c1cnn2CC(=O)O)S(=O)(=O)c1cc(C(C)(F)F)cc(C(F)(F)F)c1 [Example 20-1a, ((R)-4-{[3-(1,1-Difluoro-ethyl)-5-trifluoromethyl-benzenesulfonyl]-methyl-amino}-4,5,6,7-tetrahydro-indazol-1-yl)-acetic acid] | 3.5
CN([C@@H]1CCCc2c1cnn2CC(=O)O)S(=O)(=O)c1cnc(OC2CCC2)c(Br)c1 [Example 4-2a, {(R)-4-[(5-Bromo-6-cyclobutoxy-pyridine-3-sulfonyl)-methyl-amino]-4,5,6,7-tetrahydro-indazol-1-yl}-acetic acid] | 39.1
O=C(O)CCn1ncc2c1CCC[C@H]2NS(=O)(=O)c1cc(C(F)(F)F)cc(C(F)(F)F)c1 [Example 1-18a, 3-[(R)-4-(3,5-Bis-trifluoromethyl-benzenesulfonylamino)-4,5,6,7-tetrahydro-indazol-1-yl]-propionic acid] | 264
O=C(O)Cn1ncc2c1CCCC2NS(=O)(=O)c1ccc(Cl)cc1Cl (stereo not drawn) [Example 1-3a, [4-(2,4-Dichloro-benzenesulfonylamino)-4,5,6,7-tetrahydro-indazol-1-yl]-acetic acid] | 234
O=C(O)Cn1ncc2c1CCCC2NS(=O)(=O)c1cc(C2CC2)cc(C(F)(F)F)c1 (stereo not drawn) [Example 25-1a, [4-(3-Cyclopropyl-5-trifluoromethyl-benzenesulfonylamino)-4,5,6,7-tetrahydro-indazol-1-yl]-acetic acid] | 22
CC(C)Oc1ncc(S(=O)(=O)N(C)[C@@H]2CCCc3c2cnn3CC(=O)O)cc1Br [Example 4-3a, {(R)-4-[(5-Bromo-6-isopropoxy-pyridine-3-sulfonyl)-methyl-amino]-4,5,6,7-tetrahydro-indazol-1-yl}-acetic acid] | 37.2
O=C(O)Cn1ncc2c1CCC[C@H]2NS(=O)(=O)c1cc(Br)cc(C(F)(F)F)c1 [Example 1-1a, [(R)-4-(3-Bromo-5-trifluoromethyl-benzenesulfonylamino)-4,5,6,7-tetrahydro-indazol-1-yl]-acetic acid] | 13
COc1cc(C(F)(F)F)cc(S(=O)(=O)N[C@@H]2CCCc3c2cnn3CC(=O)O)c1 [Example 1-12a, [(R)-4-(3-Methoxy-5-trifluoromethyl-benzenesulfonylamino)-4,5,6,7-tetrahydro-indazol-1-yl]-acetic acid] | 53.3
CCOc1cc(C(F)(F)F)cc(S(=O)(=O)NC2CCCc3c2cnn3CC(=O)O)c1 (stereo not drawn) [Example 3-1a, [4-(3-Ethoxy-5-trifluoromethyl-benzenesulfonylamino)-4,5,6,7-tetrahydro-indazol-1-yl]-acetic acid] | 145
O=C(O)Cn1ncc2c1CCC[C@H]2NS(=O)(=O)c1cc(C(F)(F)F)cc(S(=O)(=O)C2CCCC2)c1 [Example 7-2a, [(R)-4-(3-Cyclopentane-sulfonyl-5-trifluoromethyl-benzenesulfonylamino)-4,5,6,7-tetrahydro-indazol-1-yl]-acetic acid] | 2.9
CN(C)c1cc(C(F)(F)F)cc(S(=O)(=O)N(C)[C@@H]2CCCc3c2cnn3CC(=O)O)c1 [Example 24-3a, {(R)-4-[(3-Dimethylamino-5-trifluoromethyl-benzenesulfonyl)-methyl-amino]-4,5,6,7-tetrahydro-indazol-1-yl}-acetic acid] | 62.2
CC(C)c1cc(C(F)(F)F)cc(S(=O)(=O)N[C@@H]2CCCc3c2cnn3CC(=O)O)c1 [Example 12-1a, (R)-[4-(3-Isopropyl-5-trifluoromethyl-benzenesulfonylamino)-4,5,6,7-tetrahydro-indazol-1-yl]-acetic acid] | 22
C=C(C)c1cc(C(F)(F)F)cc(S(=O)(=O)NC2CCCc3c2cnn3CC(=O)O)c1 (stereo not drawn) [Example 25-3a, [4-(3-Isopropenyl-5-trifluoromethyl-benzenesulfonylamino)-4,5,6,7-tetrahydro-indazol-1-yl]-acetic acid] | 40.4
CS(=O)(=O)c1cc(S(C)(=O)=O)cc(S(=O)(=O)N[C@@H]2CCCc3c2cnn3CC(=O)O)c1 [Example 1-16a, [(R)-4-(3,5-Bis-methanesulfonyl-benzenesulfonylamino)-4,5,6,7-tetrahydro-indazol-1-yl]-acetic acid] | 5.9
O=C(O)Cn1ncc2c1CCCC2NS(=O)(=O)c1cc(Cl)cc(Cl)c1 (stereo not drawn) [Example 1-2a, [4-(3,5-Dichloro-benzenesulfonylamino)-4,5,6,7-tetrahydro-indazol-1-yl]-acetic acid] | 386
CN([C@@H]1CCCc2c1cnn2CC(=O)O)S(=O)(=O)c1cc(N2CCCC2)cc(C(F)(F)F)c1 [Example 24-1a, {(R)-4-[Methyl-(3-pyrrolidin-1-yl-5-trifluoromethyl-benzenesulfonyl)-amino]-4,5,6,7-tetrahydro-indazol-1-yl}-acetic acid] | 38.1
Cc1cc(C(F)(F)F)cc(S(=O)(=O)NC2CCCc3c2cnn3CC(=O)O)c1 (stereo not drawn) [Example 25-2a, [4-(3-Methyl-5-trifluoromethyl-benzenesulfonylamino)-4,5,6,7-tetrahydro-indazol-1-yl]-acetic acid] | 142
CN([C@@H]1CCCc2c1cnn2CC(=O)O)S(=O)(=O)c1cc(C(F)(F)F)cc(S(=O)(=O)C(C)(C)C)c1 [Example 10-4a, ((R)-4-{Methyl-[3-(2-methyl-propane-2-sulfonyl)-5-trifluoromethyl-benzenesulfonyl]-amino}-4,5,6,7-tetrahydro-indazol-1-yl)-acetic acid] | 4.7
CC[S+]([O-])c1cc(C(F)(F)F)cc(S(=O)(=O)N(C)[C@@H]2CCCc3c2cnn3CC(=O)O)c1 (stereo partly drawn) [Example 8-1a, {(R)-4-[(3-Ethanesulfinyl-5-trifluoromethyl-benzenesulfonyl)-methyl-amino]-4,5,6,7-tetrahydro-indazol-1-yl}-acetic acid] | 3.3
CC1(c2cc(C(F)(F)F)cc(S(=O)(=O)N[C@@H]3CCCc4c3cnn4CC(=O)O)c2)CC1 [Example 11-1a, {(R)-4-[3-(1-Methyl-cyclopropyl)-5-trifluoromethyl-benzenesulfonylamino]-4,5,6,7-tetrahydro-indazol-1-yl}-acetic acid] | 7.8
CN([C@@H]1CCCc2c1cnn2CC(=O)O)S(=O)(=O)c1cc(C(F)(F)F)cc(S(=O)(=O)C2CCCC2)c1 [Example 10-2a, {(R)-4-[(3-Cyclopentanesulfonyl-5-trifluoromethyl-benzenesulfonyl)-methyl-amino]-4,5,6,7-tetrahydro-indazol-1-yl}-acetic acid] | 2.9
CN([C@@H]1CCCc2c1cnn2CCC(=O)O)S(=O)(=O)c1cc(C(F)(F)F)cc(S(=O)(=O)C(C)(C)C)c1 [Example 10-7a, 3-((R)-4-{Methyl-[3-(2-methyl-propane-2-sulfonyl)-5-trifluoromethyl-benzenesulfonyl]-amino}-4,5,6,7-tetrahydro-indazol-1-yl)-propionic acid] | 12.5
